For 20 compounds, IC50 and EC50 results are on record in US12312359B2 (Vitae Pharmaceuticals, LLC, priority 2016, dated 2025).

For experiment [1], the target named is T1, biotinylated wild-type menin and MLL-AF9 fusion protein (menin/MLL binding) (Homo sapiens, UniProt O00255).
T1 construct: made in house; host or cells: menin: E. coli; MLL-AF9-FLAG: HEK293 cells, used as cleared lysate
T1 sequence (O00255 1-610): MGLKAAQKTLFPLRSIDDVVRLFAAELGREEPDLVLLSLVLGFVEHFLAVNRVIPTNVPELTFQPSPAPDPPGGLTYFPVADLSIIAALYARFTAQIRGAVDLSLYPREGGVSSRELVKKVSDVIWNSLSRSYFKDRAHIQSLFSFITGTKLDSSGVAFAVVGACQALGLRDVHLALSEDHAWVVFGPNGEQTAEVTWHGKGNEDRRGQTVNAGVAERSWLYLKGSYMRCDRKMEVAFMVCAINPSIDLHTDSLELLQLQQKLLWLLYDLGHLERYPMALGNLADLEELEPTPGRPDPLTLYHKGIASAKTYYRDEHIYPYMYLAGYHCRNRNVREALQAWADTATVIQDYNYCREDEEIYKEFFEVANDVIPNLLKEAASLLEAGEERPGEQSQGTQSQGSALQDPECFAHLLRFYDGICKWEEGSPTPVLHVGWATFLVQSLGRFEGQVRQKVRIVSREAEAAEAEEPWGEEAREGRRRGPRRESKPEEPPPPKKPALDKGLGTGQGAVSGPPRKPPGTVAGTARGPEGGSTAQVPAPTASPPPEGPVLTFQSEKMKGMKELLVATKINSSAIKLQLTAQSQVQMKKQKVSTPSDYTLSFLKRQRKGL
Nature of the experiment: Assay 1: menin/MLL binding AlphaLISA assay, wild-type menin. The following applies: Table 30; column head does not say wild-type or mutated menin. A digest of the protocol:
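Compound was preincubated 30 min at room temperature with biotinylated menin (5 nM) and MLL-AF9-FLAG lysate from HEK293 cells, pH 7.4 buffer with 5% DMSO and DTT. Bead-based Alpha signal after 60 min with streptavidin donor and anti-FLAG acceptor beads; four-parameter logistic fit gave IC50.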

Experiment [2] has as its system human acute monocytic leukemia cell line MV-4-11. Nature of the experiment: Assay 2: cell proliferation assay (ATP quantitation, CellTiter-Glo), MV-4-11. The following applies: MV-4-11 cells. It counts as cell-based. In a few lines:
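Read-out is CellTiter-Glo luminescence quantifying ATP. Compound exposure lasted 72 h at 37° C., 5% CO2, with 1.67×10^4 MV-4-11 cells per well in 10% FBS medium, alongside HL-60 toxicity-control cells.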
(In ATP-based viability assays light output follows the ATP content of the culture.)

By IC50 is commonly meant the concentration that inhibits the measured activity by half. A lower IC50 goes with higher potency. As usually defined, the EC50 is the concentration needed to bring the measured effect to its halfway point. A lower EC50 goes with a more potent agent. In turn, `CCn1c(=O)[nH]c2cc(CN3CCC4(CCN(c5ncncc5Oc5ccc(F)cc5C(=O)N(C)C(C)C)C4)C3)ccc21` (stereo not shown) [Example 128, 2-((4-(7-((1-ethyl-2-oxo-2,3-dihydro-1H-benzo[d]imidazol-5-yl)methyl)-2,7-diazaspiro[4.4]nonan-2-yl)pyrimidin-5-yl)oxy)-5-fluoro-N-isopropyl-N-methylbenzamide] yielded an IC50 in experiment [1] of less than 100 nM. Also, the EC50 in experiment [2] (Homo sapiens, MV4-11, 72 h) lay within 100 to 1000 nM.

`COCCn1c(=O)[nH]c2cc(CN3CCC4(CCN(c5ncncc5Oc5ccc(F)cc5C(=O)N(C)C(C)C)C4)C3)ccc21` (stereo not shown) [Example 129, 5-fluoro-N-isopropyl-2-((4-(7-((1-(2-methoxyethyl)-2-oxo-2,3-dihydro-1H-benzo[d]imidazol-5-yl)methyl)-2,7-diazaspiro[4.4]nonan-2-yl)pyrimidin-5-yl)oxy)-N-methyl-benzamide]: the IC50 in experiment [1] was less than 100 nM. Besides, the EC50 in experiment [2] (Homo sapiens, MV4-11, 72 h) was in the range of 100 to 1000 nM.

In experiment [1], `CC(C)c1ncncc1-c1cc(F)ccc1Oc1cncnc1N1CCC2(CN(C(=O)Cc3ccc(C#N)cc3)C2)C1` [Example 130, 4-(2-(6-(5-(4-fluoro-2-(4-isopropylpyrimidin-5-yl)phenoxy)pyrimidin-4-yl)-2,6-diazaspiro[3.4]octan-2-yl)-2-oxoethyl)benzonitrile] gave an IC50 of less than 100 nM. The compound also came in with an EC50 in experiment [2] (Homo sapiens, MV4-11, 72 h) of 100 to 1000 nM.

On to `COCCn1c(=O)[nH]c2cc(CN3CCC4(CCN(c5ncncc5Oc5ccc(F)cc5-c5cncnc5C(C)C)C4)C3)ccc21` (stereo not shown) [Example 131, 5-((7-(5-(4-fluoro-2-(4-isopropylpyrimidin-5-yl)phenoxy)pyrimidin-4-yl)-2,7-diazaspiro[4.4]nonan-2-yl)methyl)-1-(2-methoxyethyl)-1,3-dihydro-2H-benzo[d]imidazol-2-one], for which, in experiment [1], the IC50 is less than 100 nM. Moreover, the EC50 in experiment [2] (Homo sapiens, MV4-11, 72 h) is less than 100 nM.

For `COc1ccc(CC(=O)N2CC3(C2)CN(c2ncncc2Oc2ccc(F)cc2-c2cncnc2C(C)C)C3)cn1` [Example 132, 1-(6-(5-(4-fluoro-2-(4-isopropylpyrimidin-5-yl)phenoxy)pyrimidin-4-yl)-2,6-diazaspiro[3.3]heptan-2-yl)-2-(6-methoxypyridin-3-yl)ethan-1-one], the half-maximal inhibitory concentration (IC50) in experiment [1] was less than 100 nM. Moreover, the EC50 in experiment [2] (Homo sapiens, MV4-11, 72 h) was in the range of 100 to 1000 nM.

`CC(C)c1ncncc1-c1cc(F)ccc1Oc1cncnc1N1CC2(CN(C(=O)Cc3ccc4c(c3)NC(=O)C4(C)C)C2)C1` [Example 133, 6-(2-(6-(5-(4-fluoro-2-(4-isopropylpyrimidin-5-yl)phenoxy)pyrimidin-4-yl)-2,6-diazaspiro[3.3]heptan-2-yl)-2-oxoethyl)-3,3-dimethylindolin-2-one] returned an IC50 in experiment [1] of less than 100 nM. For the same compound, the EC50 in experiment [2] (Homo sapiens, MV4-11, 72 h) lay in the range of 100 to 1000 nM.

In experiment [1], `CC(C)N(C)C(=O)c1cc(F)ccc1Oc1cncnc1N1CC2(CN(CC[C@H]3CC[C@H](NC(=O)OC(C)(C)C)CC3)C2)C1` [Example 134, tert-butyl ((1r,4r)-4-(2-(6-(5-(4-fluoro-2-(isopropyl(methyl)carbamoyl)phenoxy)pyrimidin-4-yl)-2,6-diazaspiro[3.3]heptan-2-yl)ethyl)cyclohexyl) carbamate] returned an IC50 of less than 100 nM. The same compound gave an EC50 in experiment [2] (Homo sapiens, MV4-11, 72 h) of 100 to 1000 nM.

As to `CC(C)N(C)Cc1cc(F)ccc1Oc1cncnc1N1CCC2(CCN(Cc3ccc4[nH]c(=O)[nH]c4c3)C2)C1` (stereo not shown) [Example 135, 5-((7-(5-(4-fluoro-2-((isopropyl(methyl)amino)methyl)phenoxy)pyrimidin-4-yl)-2,7-diazaspiro[4.4]nonan-2-yl)methyl)-1,3-dihydro-2H-benzo[d]imidazol-2-one], the IC50 in experiment [1] was less than 100 nM. The compound also came in with an EC50 in experiment [2] (Homo sapiens, MV4-11, 72 h) of no less than 1000 nM.

Turning to `CCN(C(=O)C(C)C)c1cc(F)ccc1Oc1cncnc1N1CC2(CCN(CC(C)C)C2)C1` [Example 136, N-ethyl-N-(5-fluoro-2-((4-(6-isobutyl-2,6-diazaspiro[3.4]octan-2-yl)pyrimidin-5-yl)oxy)phenyl)iso-butyramide], the IC50 in experiment [1] is less than 100 nM. In addition, the EC50 in experiment [2] (Homo sapiens, MV4-11, 72 h) lay within 100 to 1000 nM.

`CCN(C(=O)C(C)C)c1cc(F)ccc1Oc1cncnc1N1CC2(CCN(CC3CCC(F)(F)CC3)C2)C1` [Example 137, N-(2-((4-(6-((4,4-difluorocyclohexyl)methyl)-2,6-diazaspiro[3.4]octan-2-yl)pyrimidin-5-yl)oxy)-5-fluorophenyl)-N-ethylisobutyramide] had an IC50 in experiment [1] of less than 100 nM. Moreover, in experiment [2] (Homo sapiens, MV4-11, 72 h), the EC50 fell in the range of 100 to 1000 nM.

As to `CC(C)C(=O)N(C)c1cc(F)ccc1Oc1cncnc1N1CC2(CN(CC[C@H]3CC[C@H](NC(=O)OC(C)(C)C)CC3)C2)C1` [Example 138, tert-butyl ((1r,4r)-4-(2-(6-(5-(4-fluoro-2-(N-methyl-isobutyramido)phenoxy)pyrimidin-4-yl)-2,6-diazaspiro [3.3]heptan-2-yl)ethyl)cyclohexyl)carbamate], in experiment [1], the IC50 was less than 100 nM. The compound also yielded a concentration giving a half-maximal response (EC50) in experiment [2] (Homo sapiens, MV4-11, 72 h) of less than 100 nM.

`CC(C)c1ncncc1-c1cc(F)ccc1Oc1cncnc1N1CC2(CC(N3CCc4cc(F)ccc4C3)CO2)C1` (stereo not shown) [Example 139, 2-(5-(4-fluoro-2-(4-isopropylpyrimidin-5-yl)phenoxy)pyrimidin-4-yl)-7-(6-fluoro-3,4-dihydroisoquinolin-2(1H)-yl)-5-oxa-2-azaspiro[3.4]octane] showed an IC50 in experiment [1] of less than 100 nM. In experiment [2] (Homo sapiens, MV4-11, 72 h), the EC50 lay within 100 to 1000 nM.

With `CC(C)c1ncncc1-c1cc(F)ccc1Oc1cncnc1N1CC2(CC(NCC3CCC(C)(C#N)CC3)C2)C1` (stereo not shown) [Example 140, 4-(((2-(5-(4-fluoro-2-(4-isopropylpyrimidin-5-yl)phenoxy)pyrimidin-4-yl)-2-azaspiro[3.3]heptan-6-yl)amino)methyl)-1-methylcyclohexane-1-carbonitrile], the IC50 in experiment [1] was less than 100 nM. In experiment [2] (Homo sapiens, MV4-11, 72 h), this compound yielded an EC50 of 100 to 1000 nM.

In experiment [1], `CC(C)c1ncncc1-c1cc(F)ccc1Oc1cncnc1N1CC2(CC(NC(C)c3ccc(C#N)cc3)C2)C1` (stereo not shown) [Example 141, 4-(1-((2-(5-(4-fluoro-2-(4-isopropylpyrimidin-5-yl)phenoxy)pyrimidin-4-yl)-2-azaspiro[3.3]heptan-6-yl)amino)ethyl)benzo-nitrile] gave a concentration for half-maximal inhibition (IC50) of less than 100 nM. The same compound yielded a concentration giving a half-maximal response (EC50) in experiment [2] (Homo sapiens, MV4-11, 72 h) of 100 to 1000 nM.

In turn, `CC(C)N(C)C(=O)c1cc(F)ccc1Oc1cncnc1N1CCC2(CCN(Cc3ccc(N4CCOC4=O)cc3)C2)C1` (stereo not shown) [Example 142, 5-fluoro-N-isopropyl-N-methyl-2-((4-(7-(4-(2-oxooxazolidin-3-yl)benzyl)-2,7-diazaspiro[4.4]nonan-2-yl)pyrimidin-5-yl)oxy)benzamide] returned an IC50 in experiment [1] of less than 100 nM. For the same compound, the EC50 in experiment [2] (72 h) is no less than 1000 nM.

With `CC(=O)N[C@H]1CC[C@H](CCN2CC3(C2)CN(c2ncncc2Oc2ccc(F)cc2-c2ccc(C#N)cc2C2CC2)C3)CC1` [Example 143, N-((1r,4r)-4-(2-(6-(5-((4′-cyano-2′-cyclopropyl-5-fluoro-[1,1′-biphenyl]-2-yl)oxy)pyrimidin-4-yl)-2,6-diazaspiro[3.3]heptan-2-yl)ethyl)cyclohexyl) acetamide], in experiment [1], the IC50 was less than 100 nM. In experiment [2] (Homo sapiens, MV4-11, 72 h), the EC50 is no less than 1000 nM.

Turning to `COC(=O)N(c1cc(F)ccc1Oc1cncnc1N1CCC2(CCN(Cc3ccc4[nH]c(=O)[nH]c4c3)C2)C1)C(C)C` (stereo not shown) [Example 144, methyl (5-fluoro-2-((4-(7-((2-oxo-2,3-dihydro-1H-benzo[d]imidazol-5-yl)methyl)-2,7-diazaspiro[4.4]nonan-2-yl)pyrimidin-5-yl)oxy)phenyl)(iso-propyl)carbamate], the IC50 in experiment [1] was less than 100 nM. In addition, in experiment [2] (Homo sapiens, MV4-11, 72 h), the EC50 was less than 100 nM.

Turning to `CC(C)N(C)C(=O)c1cc(F)ccc1Oc1cncnc1N1CCC2(CCN(Cc3ccc4cn[nH]c4c3)C2)C1` (stereo not shown) [Example 145, 2-((4-(7-((1H-indazol-6-yl)methyl)-2,7-diazaspiro[4.4]nonan-2-yl)pyrimidin-5-yl)oxy)-5-fluoro-N-isopropyl-N-methylbenzamide], the IC50 in experiment [1] is less than 100 nM. Also, the EC50 in experiment [2] (Homo sapiens, MV4-11, 72 h) was 100 to 1000 nM.

`CC(C)N(C)C(=O)c1cc(F)ccc1Oc1cncnc1N1CCC2(CCN(Cc3ccc4c(C#N)n[nH]c4c3)C2)C1` (stereo not shown) [Example 146, 2-((4-(7-((3-cyano-1H-indazol-6-yl)methyl)-2,7-diazaspiro[4.4]nonan-2-yl)pyrimidin-5-yl)oxy)-5-fluoro-N-isopropyl-N-methylbenzamide] displayed an IC50 in experiment [1] of less than 100 nM. In addition, the EC50 in experiment [2] (Homo sapiens, MV4-11, 72 h) lay in the range of 100 to 1000 nM.

Compound `CC(C)(C)OC(=O)N[C@H]1CC[C@H](CN2CCC3(CCN(c4ncncc4Oc4ccc(F)cc4OC4CCCC4)C3)C2)CC1` (stereo partly shown) [Example 147, tert-butyl ((1r,4r)-4-((7-(5-(2-(cyclopentyloxy)-4-fluorophenoxy)pyrimidin-4-yl)-2,7-diazaspiro[4.4]nonan-2-yl)methyl)cyclohexyl) carbamate] came in with an IC50 in experiment [1] of less than 100 nM. The compound also showed an EC50 in experiment [2] (Homo sapiens, MV4-11, 72 h) of no less than 1000 nM.
